20 compounds from US4701448A, “Metal salt of organic phosphate and an antihyperlipemic agent containing the same” (Asahi Denka Kogyo Kabushiki Kaisha, priority 1985, dated 1987) can be followed below.

Data set [1] in a line: Water solubility, hygroscopic property and stability (statements in words). The format is physicochemical.
The test system of data set [2] is serum cholesterol. The experiment in a line: Serum cholesterol lowering activity, oral, rabbit, 5 successive days. The format is in vivo. As to conditions: two times a day, 5 days. As for the experimental part: (1) Serum cholesterol lowering activity the metal salt of organic phosphate according to the present invention was orally administered to a rabbit (body weight of about 3 Kg) two times a day (at 9:00 a.m. and 4:00 p.m.) for 5 successive days. After 5 days, blood was sampled and the total cholesterol value in serum was measured in a conventional manner.

Data set [3] in a line: Stability, 5 weeks at 45° C. and humidity of 80% (HPLC remaining rate). The format is physicochemical. The settings on record: after 5 weeks, humidity of 80%; for remaining at 840 h: solid, 80% humidity; for Remaining rate: 50400 min. The method, then:
One gram each of CB3A, CK3A and various metal salts thereof was placed in a beaker and the beaker was allowed to stand for 5 weeks in a constant temperature and humidity bath controlled at a temperature of 45° C. and a humidity of 80%. After 5 weeks, a remaining rate of the compound was analyzed quantitatively with a high performance liquid chromatography "Tri rotar" manufactured by Nippon Bunko K. K. (Japan).
A0 = initial amount of the compound prior to standing in the constan
temperature and humidity bath
A1 = final amount of the compound after 5 weeks

For data set [4], the system named is mouse. The data set can be described thus: Acute toxicity, mouse. The format is in vivo. The source says: (§1) The acute toxicity of the metal salt of CB3A and of CK3A was examined by orally or peritoneally administrating an aqueous solution or dispersion thereof the results are shown in Table 2.
(§2) a . . . per os (oral administration)
(§3) b . . . intraperitoneal injection

For data set [5], the system named is rat. The data set can be described thus: Acute toxicity, rat. The format is in vivo.
From the text: as §1, §2, §3

Data set [6] is described as follows: Acute toxicity, mouse. The settings on record: in vivo. The format is in vivo.
From the text: as §1, §2, §3

Data set [7] is described as follows: Acute toxicity, rat. The format is in vivo. As to conditions: in vivo.
From the text: as §1, §2, §3

Structures can show the parent of a compound that is named as a salt.

`CCC(C)C(=O)OC1CCC=C2C=CC(C)C(CCC(CC(O)CC(=O)OC)OP(=O)(O)O)C21` (centres unmarked) [CB3A methyl ester-2K salt, Dipotassium salt of CB3A methyl ester]: in data set [1], the stability result was “excellent” and the water solubility entry was “excellent”. For the same compound, in data set [2] (1.5 mg/kg/day), the “Total Serum cholesterol lowering rate” value was determined as 19.5%. Besides, the “Total Serum cholesterol lowering rate” value in data set [2] (6 mg/kg/day) worked out at 33.8%. The share remaining – broadly, what is left of the initial amount, in per cent – at 840 h in data set [3] is 84%.
`CCC(C)C(=O)OC1CCC=C2C=CC(C)C(CCC(CC(O)CC(=O)OC)OP(=O)(O)O)C21` (centres unmarked) [CB3A methyl ester-Ca salt, Calcium salt of CB3A methyl ester]: in data set [1], the hygroscopic property entry is “no hygroscopic property” and the stability entry is “particularly excellent”. The “Total Serum cholesterol lowering rate” value in data set [2] (1.5 mg/kg/day) is on record as 23.0%. Besides, the “Total Serum cholesterol lowering rate” value in data set [2] (6 mg/kg/day) is 40.6%.
For `CCC(C)C(=O)OC1CCC=C2C=CC(C)C(CCC(CC(O)CC(=O)O)OP(=O)(O)O)C21` (centres unmarked) [CB3A-1.5Ba salt, Sesquibarium salt of CB3A] the same measures were “no hygroscopic property”, “particularly excellent”, 21.3% and 36.6%.
Turning to `CCC(C)C(=O)OC1CCC=C2C=CC(C)C(CCC(CC(O)CC(=O)O)OP(=O)(O)O)C21` (centres unmarked) [CB3A-1.5Ca salt, Sesquicalcium salt of CB3A], the 50% lethal dose (LD50) (as a rule, the dose expected to kill half of the subjects tested) in data set [4] (intraperitoneal injection) was > 500 mg/kg; in data set [4] (per os (oral administration)), > 2000 mg/kg; in data set [5] (intraperitoneal injection), > 500 mg/kg; in data set [5] (per os (oral administration)), > 2000 mg/kg. Besides, the hygroscopic property result in data set [1] is recorded as “no hygroscopic property”. For the same compound, the stability result in data set [1] is recorded as “particularly excellent”. In addition, the “Total Serum cholesterol lowering rate” value in data set [2] (1.5 mg/kg/day) is recorded as 23.2%; in data set [2] (6 mg/kg/day), 40.2%. In data set [3], this compound came in with a Remaining rate of 97%.
As to `CCC(C)C(=O)OC1CCC=C2C=CC(C)C(CCC(CC(O)CC(=O)O)OP(=O)(O)O)C21` (centres unmarked) [CB3A-1.5Mg salt], the “Total Serum cholesterol lowering rate” value was 21.1% in data set [2] (1.5 mg/kg/day) and 36.3% in data set [2] (6 mg/kg/day).
For `CCC(C)C(=O)OC1CCC=C2C=CC(C)C(CCC(CC(O)CC(=O)O)OP(=O)(O)O)C21` (centres unmarked) [CB3A-1K salt, Monopotassium salt of CB3A], in data set [1], the stability entry is recorded as “excellent” and the water solubility entry is given as “excellent”. The “Total Serum cholesterol lowering rate” value in data set [2] (1.5 mg/kg/day) is reported as 19.6%. For the same compound, the “Total Serum cholesterol lowering rate” value in data set [2] (6 mg/kg/day) amounted to 33.7%.
Compound `CCC(C)C(=O)OC1CCC=C2C=CC(C)C(CCC(CC(O)CC(=O)O)OP(=O)(O)O)C21` (centres unmarked) [CB3A-1Na salt] had a Remaining rate in data set [3] of 74%.
As for `CCC(C)C(=O)OC1CCC=C2C=CC(C)C(CCC(CC(O)CC(=O)O)OP(=O)(O)O)C21` (centres unmarked) [CB3A-2K salt, Dipotassium salt of CB3A], the stability result in data set [1] was “excellent”. Further, the water solubility entry in data set [1] is “excellent”. In addition, the “Total Serum cholesterol lowering rate” value is 19.1% in data set [2] (1.5 mg/kg/day) and 34.2% in data set [2] (6 mg/kg/day).
For `CCC(C)C(=O)OC1CCC=C2C=CC(C)C(CCC(CC(O)CC(=O)O)OP(=O)(O)O)C21` (centres unmarked) [CB3A-2Na salt], the Remaining rate in data set [3] came to 78%.
As for `CCC(C)C(=O)OC1CCC=C2C=CC(C)C(CCC(CC(O)CC(=O)O)OP(=O)(O)O)C21` (centres unmarked) [CB3A-3K salt, Tripotassium salt of CB3A], the LD50 in data set [6] (ip, intraperitoneal injection) was > 500 mg/kg; in data set [6] (per os (oral administration)), > 2000 mg/kg; in data set [7] (ip, intraperitoneal injection), > 500 mg/kg; in data set [7] (per os (oral administration)) it was > 2000 mg/kg. Further, the stability entry in data set [1] is reported as “excellent”. The water solubility result in data set [1] is “excellent”. Besides, the “Total Serum cholesterol lowering rate” value came to 19.4% in data set [2] (1.5 mg/kg/day) and 33.9% in data set [2] (6 mg/kg/day).
On to `CCC(C)C(=O)OC1CCC=C2C=CC(C)C(CCC(CC(O)CC(=O)O)OP(=O)(O)O)C21` (centres unmarked) [CB3A-3Na salt, Trisodium salt of CB3A], for which the LD50 in data set [4] (intraperitoneal injection) is recorded as > 500 mg/kg; in data set [4] (per os (oral administration)), > 2000 mg/kg; in data set [5] (intraperitoneal injection) it was > 500 mg/kg; in data set [5] (per os (oral administration)), > 2000 mg/kg. For the same compound, the stability entry in data set [1] is on record as “excellent”. Besides, the water solubility result in data set [1] is “excellent”. The “Total Serum cholesterol lowering rate” value worked out at 18.5% in data set [2] (1.5 mg/kg/day) and 34.3% in data set [2] (6 mg/kg/day). The compound also had a Remaining rate in data set [3] of 82%.
On to `CCC(C)C(=O)OC1CCC=C2C=CC(C)C(CCC(CC(O)CC(=O)O)OP(=O)(O)O)C21` (centres unmarked) [CB3A-Al salt, Aluminum salt of CB3A], for which the LD50 in data set [4] (intraperitoneal injection) is on record as > 500 mg/kg; in data set [4] (per os (oral administration)) it was > 2000 mg/kg; in data set [5] (intraperitoneal injection), > 500 mg/kg; in data set [5] (per os (oral administration)), > 2000 mg/kg. Moreover, the hygroscopic property entry in data set [1] is recorded as “no hydroscopic property”. In data set [1], the stability entry is “particularly excellent”. Moreover, the results for the “Total Serum cholesterol lowering rate” value in data set [2] (1.5 mg/kg/day) and in data set [2] (6 mg/kg/day) were 24.2% and 41.6%, respectively. This compound gave a Remaining rate in data set [3] of 98%.
Regarding `CCC(C)C(=O)OC1CC(C)C=C2C=CC(C)C(CCC(CC(O)CC(=O)OC)OP(=O)(O)O)C21` (centres unmarked) [CK3A methyl ester-2K salt, Dipotassium salt of CK3A methyl ester], in data set [1], the stability entry is listed as “excellent”. For the same compound, the water solubility result in data set [1] is on record as “excellent”. Further, the entries for the “Total Serum cholesterol lowering rate” value in data set [2] (1.5 mg/kg/day) and in data set [2] (6 mg/kg/day) were 18.7% and 34.7%, respectively. Besides, the fraction remaining at 840 h in data set [3] amounted to 83%.
For `CCC(C)C(=O)OC1CC(C)C=C2C=CC(C)C(CCC(CC(O)CC(=O)OC)OP(=O)(O)O)C21` (centres unmarked) [CK3A methyl ester-Ca salt, Calcium salt of CK3A methyl ester], in data set [1], the hygroscopic property result is “no hygroscopic property” and the stability result is “particularly excellent”. The “Total Serum cholesterol lowering rate” value in data set [2] (1.5 mg/kg/day) was 24.9%. Moreover, the “Total Serum cholesterol lowering rate” value in data set [2] (6 mg/kg/day) worked out at 39.2%.
For `CCC(C)C(=O)OC1CC(C)C=C2C=CC(C)C(CCC(CC(O)CC(=O)O)OP(=O)(O)O)C21` (centres unmarked) [CK3A-1.5Ba salt, Sesquibarium salt of CK3A] the same measures were “no hygroscopic property”, “particularly excellent”, 21.1% and 36.6%.
`CCC(C)C(=O)OC1CC(C)C=C2C=CC(C)C(CCC(CC(O)CC(=O)O)OP(=O)(O)O)C21` (centres unmarked) [CK3A-1.5Ca salt, Sesquicalcium salt of CK3A]: the LD50 in data set [4] (intraperitoneal injection) is > 500 mg/kg; in data set [4] (per os (oral administration)), > 2000 mg/kg; in data set [5] (intraperitoneal injection), > 500 mg/kg; in data set [5] (per os (oral administration)), > 2000 mg/kg. The hygroscopic property entry in data set [1] is given as “no hygroscopic property”. Besides, the stability result in data set [1] is on record as “particularly excellent”. The “Total Serum cholesterol lowering rate” value was 24.5% in data set [2] (1.5 mg/kg/day) and 39.9% in data set [2] (6 mg/kg/day). In data set [3], this compound had a Remaining rate of 96%.
Turning to `CCC(C)C(=O)OC1CC(C)C=C2C=CC(C)C(CCC(CC(O)CC(=O)O)OP(=O)(O)O)C21` (centres unmarked) [CK3A-1.5Mg salt], the “Total Serum cholesterol lowering rate” value in data set [2] (1.5 mg/kg/day) is 22.1%; in data set [2] (6 mg/kg/day) it was 36.3%.
In the case of `CCC(C)C(=O)OC1CC(C)C=C2C=CC(C)C(CCC(CC(O)CC(=O)O)OP(=O)(O)O)C21` (centres unmarked) [CK3A-3K salt, Tripotassium salt of CK3A], the 50% lethal dose (LD50) was > 500 mg/kg in data set [6] (ip, intraperitoneal injection); > 2000 mg/kg in data set [6] (per os (oral administration)); > 500 mg/kg in data set [7] (ip, intraperitoneal injection); > 2000 mg/kg in data set [7] (per os (oral administration)). Also, the stability result in data set [1] is given as “excellent”. The water solubility result in data set [1] is reported as “excellent”. Also, the “Total Serum cholesterol lowering rate” value in data set [2] (1.5 mg/kg/day) amounted to 18.9%; in data set [2] (6 mg/kg/day) it was 34.7%. In data set [3], this compound gave a Remaining rate of 85%.
For the compound `CCC(C)C(=O)OC1CC(C)C=C2C=CC(C)C(CCC(CC(O)CC(=O)O)OP(=O)(O)O)C21` (centres unmarked) [CK3A-3Na salt, Trisodium salt of CK3A], the 50% lethal dose (LD50) is > 500 mg/kg in data set [4] (intraperitoneal injection), > 2000 mg/kg in data set [4] (per os (oral administration)), > 500 mg/kg in data set [5] (intraperitoneal injection) and > 2000 mg/kg in data set [5] (per os (oral administration)). For the same compound, the stability result in data set [1] is recorded as “excellent”. In addition, the water solubility result in data set [1] is “excellent”. Moreover, the “Total Serum cholesterol lowering rate” value in data set [2] (1.5 mg/kg/day) came out at 17.1%; in data set [2] (6 mg/kg/day) it was 30.0%.
In the case of `CCC(C)C(=O)OC1CC(C)C=C2C=CC(C)C(CCC(CC(O)CC(=O)O)OP(=O)(O)O)C21` (centres unmarked) [CK3A-Al salt, Aluminum salt of CK3A], the LD50 in data set [4] (intraperitoneal injection) is reported as > 500 mg/kg; in data set [4] (per os (oral administration)) it was > 2000 mg/kg; in data set [5] (intraperitoneal injection), > 500 mg/kg; in data set [5] (per os (oral administration)), > 2000 mg/kg. The hygroscopic property result in data set [1] is “no hygroscopic property”. Besides, the stability entry in data set [1] is reported as “particularly excellent”. Besides, the “Total Serum cholesterol lowering rate” value in data set [2] (1.5 mg/kg/day) was 23.4%; in data set [2] (6 mg/kg/day) it was 41.6%. The compound further showed a Remaining rate in data set [3] of 98%.
